In series [1] the test system is M. tuberculosis H37Rv. Briefly: H37Rv MIC in GAST medium. In kind it is cell-based, Mycobacterium tuberculosis. The conditions noted are these: Mycobacterium tuberculosis, H37RV; read-out: GAST MIC.
In series [2] the test system is M. tuberculosis H37Rv. Briefly: microbe, parasite or virus in culture. The following applies: Mycobacterium tuberculosis, read-out: 7H9-ADC MIC. In kind it is cell-based.
Series [3] is classed as in vitro ADME. The conditions noted are these: female, CD1, mouse, 0.5 μM, pH 7.4. Here is the method:
Test compound (0.5 μM) was incubated with female CD1 mouse liver microsomes (Xenotech LLC; 0.5 mg/mL, 50 mM potassium phosphate buffer, pH 7.4), and the reaction started with addition of excess NADPH (8 mg/mL, 50 mM potassium phosphate buffer, pH 7.4). Immediately, at time zero, and then at 3, 6, 9, 15, and 30 min, an aliquot (50 μL) of the incubation mixture was removed and mixed with acetonitrile (100 μL) to stop the reaction. Internal standard was added to all samples; the samples were centrifuged to sediment precipitated protein, and the plates were then sealed prior to UPLC-MS/MS analysis using a Quattro Premier XE (Waters Corporation, USA). XLfit (IDBS, UK) was used to calculate the exponential decay and consequently the rate constant (k) from the ratio of peak area of test compound to internal standard at each time point. The rate of intrinsic clearance (Cli) of each test compound was then calculated using the following calculation. [drawing 1] where V (mL/mg protein) is the incubation volume/mg protein added and microsomal protein yield is taken as 52.5 mg protein/g liver. Verapamil (0.5 μM) was used as a positive control to confirm acceptable assay performance.

The nature of series [4]: physchem. It counts as physicochemical. The conditions noted are these: for solubility kinetic: water, kinetic from dmso stock. The protocol: The aqueous solubility of the test compounds was measured using laser nephelometry. Compounds were subject to serial dilution from 10 to 0.5 mM in DMSO. An aliquot was then mixed with Milli-Q water to obtain an aqueous dilution plate with a final concentration range of 250–12 μM, with a final DMSO concentration of 2.5%. Triplicate aliquots were transferred to a flat bottomed polystyrene plate which was immediately read on the NEPHELOstar (BMG Lab Technologies). The amount of laser scatter caused by insoluble particulates (relative nephelometry units, RNU) was plotted against compound concentration using a segmental regression fit, with the point of inflection being quoted as the compounds aqueous solubility (μM).

Series [5] in a line: Calculated properties (StarDrop).
Series [6] addresses T1, recombinant MBP-MtNdh (MTb NDH-2) (Mycobacterium tuberculosis, UniProt P95160).
T1 construct: The ORF corresponding to Rv1854c was codon optimized for E. coli; made in house; host or cells: E. coli BL21 (DE3) pLysS
As to the kind of experiment: Ndh activity assay (NADH oxidation at 340 nm). In kind it is biochemical. The conditions noted are these: NADH 250 μM, Q2 40 μM; mean ± SD, Figure 6 inset; read-out: IC50 against MBP-MtNdh.

Values after ≈ are worked out from the molar mass of the structure shown.

T1 sequence (P95160 whole entry): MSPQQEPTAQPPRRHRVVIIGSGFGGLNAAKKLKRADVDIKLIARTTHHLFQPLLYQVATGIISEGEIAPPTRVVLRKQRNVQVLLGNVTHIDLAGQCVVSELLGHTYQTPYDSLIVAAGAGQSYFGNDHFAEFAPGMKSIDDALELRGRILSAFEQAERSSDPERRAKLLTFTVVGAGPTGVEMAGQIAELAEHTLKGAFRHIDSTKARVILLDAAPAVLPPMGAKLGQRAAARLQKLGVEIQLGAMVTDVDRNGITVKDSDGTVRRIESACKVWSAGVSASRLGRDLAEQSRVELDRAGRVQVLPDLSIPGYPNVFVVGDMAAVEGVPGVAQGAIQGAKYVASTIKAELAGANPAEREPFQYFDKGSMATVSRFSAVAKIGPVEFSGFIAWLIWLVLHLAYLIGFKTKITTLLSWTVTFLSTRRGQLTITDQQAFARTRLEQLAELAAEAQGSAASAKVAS

Turning to `O=C(CCc1nc2ccccc2c(=O)[nH]1)NC1CCCCC1` [Compound 19, N-Cyclohexyl-3-(4-oxo-3,4-dihydroquinazolin-2-yl)propanamide], the MIC in series [1] and in series [2] was 50 µM (≈ 15 µg/mL) throughout. Also, the “Microsomal Cli, mouse” value in series [3] stood at 1.6 mL/min/g. This compound also gave a solubility (kinetic) in series [4] of 250 µM (≈ 74.8 µg/mL).
Consider `O=C(CSc1ncc2ccccc2n1)NC1CCCCC1` [Compound 21, N-Cyclohexyl-2-(quinazolin-2-ylthio)acetamide], for which the MIC in series [1] and in series [2] was 50 µM (≈ 15.1 µg/mL) in each case.
For the compound `O=C(CSc1nc2ccccc2c(=O)[nH]1)NC1CCCCCC1` [Compound 4, N-Cycloheptyl-2-((4-oxo-3,4-dihydroquinazolin-2-yl)thio)acetamide], the MIC in series [1] was determined as 0.3 µM (≈ 0.0994 µg/mL); in series [2], 0.6 µM (≈ 0.199 µg/mL). Moreover, the “Microsomal Cli, mouse” value in series [3] was determined as 6.4 mL/min/g. The solubility (kinetic) in series [4] came to 39 µM (≈ 12.9 µg/mL).
With `CC(Sc1nc2ccccc2c(=O)[nH]1)C(=O)N(C)C1CCCCC1` (stereo not shown) [Compound 16, N-Cyclohexyl-N-methyl-2-((4-oxo-3,4-dihydroquinazolin-2-yl)thio)propanamide], the MIC in series [1] and in series [2] was 50 µM (≈ 17.3 µg/mL) each time. Besides, the “Microsomal Cli, mouse” value in series [3] stood at 50 mL/min/g. For the same compound, the solubility (kinetic) in series [4] was 250 µM (≈ 86.4 µg/mL).
Consider `O=C(CSc1nc2ccccc2c(=O)[nH]1)NC1CCCCC1(F)F` (stereo not shown) [Compound 8, N-(2,2-Difluorocyclohexyl)-2-((4-oxo-3,4-dihydroquinazolin-2-yl)thio)acetamide], for which the MIC in series [1] was found to be 9.4 µM (≈ 3.32 µg/mL); in series [2], 12.5 µM (≈ 4.42 µg/mL). The “Microsomal Cli, mouse” value in series [3] is 2.3 mL/min/g. The same compound returned a kinetic solubility in series [4] of 219 µM (≈ 77.4 µg/mL).
In the same order, the values of `Cc1nc(SCC(=O)NC2CCCCC2)nc(O)c1C` [Compound 25, N-Cyclohexyl-2-((4,5-dimethyl-6-oxo-1,6-dihydropyrimidin-2-yl)thio)acetamide] are 6.3 µM (≈ 1.86 µg/mL), 12.5 µM (≈ 3.69 µg/mL), 1.1 mL/min/g and 250 µM (≈ 73.9 µg/mL).
Take `O=C(CSc1nc2ccccc2c(=O)[nH]1)NCC1CCCCC1` [Compound 10, N-(Cyclohexylmethyl)-2-((4-oxo-3,4-dihydroquinazolin-2-yl)thio)acetamide]: the results for the MIC in series [1] and in series [2] were 0.2 µM (≈ 0.0663 µg/mL) and 0.3 µM (≈ 0.0994 µg/mL), respectively. Also, in series [3], the “Microsomal Cli, mouse” value is 5.9 mL/min/g.
As for `O=C(CSc1nc2ccccc2c(=O)[nH]1)NC1CCCC1` [Compound 5, N-Cyclopentyl-2-((4-oxo-3,4-dihydroquinazolin-2-yl)thio)acetamide], the MIC in series [1] was found to be 1 µM (≈ 0.303 µg/mL); in series [2], 1.8 µM (≈ 0.546 µg/mL). Also, the “Microsomal Cli, mouse” value in series [3] amounted to 2.5 mL/min/g. The solubility (kinetic) in series [4] was found to be 101 µM (≈ 30.6 µg/mL).
On to `CN(C(=O)CSc1nc2ccccc2c(=O)[nH]1)C1CCCCC1` [Compound 14, N-Cyclohexyl-N-methyl-2-((4-oxo-3,4-dihydroquinazolin-2-yl)thio)acetamide], for which the MIC in series [1] and in series [2] was 50 µM (≈ 16.6 µg/mL) each time. Also, the “Microsomal Cli, mouse” value in series [3] is listed as 13 mL/min/g. Also, the Kinetic solubility in series [4] is 250 µM.
Regarding `Cn1c(SCC(=O)NC2CCCCC2)nc2ccccc2c1=O` [Compound 20, N-Cyclohexyl-2-((3-methyl-4-oxo-3,4-dihydroquinazolin-2-yl)thio)acetamide], the MIC in series [1] and in series [2] was 50 µM (≈ 16.6 µg/mL) in each case. Besides, the “Microsomal Cli, mouse” value in series [3] is given as 11 mL/min/g.
As to `O=C(CSc1nc2ccc(F)cc2c(=O)[nH]1)NC1CCC(F)(F)CC1` [Compound 26, N-(4,4-Difluorocyclohexyl)-2-((6-fluoro-4-oxo-3,4-dihydroquinazolin-2-yl)thio)acetamide], the figures for the MIC in series [1] and in series [2] were 0.6 µM (≈ 0.223 µg/mL) and 0.8 µM (≈ 0.297 µg/mL), respectively. Moreover, the “Microsomal Cli, mouse” value in series [3] amounted to 2.2 mL/min/g. Also, in series [4], the kinetic solubility amounted to 55 µM (≈ 20.4 µg/mL).
As for `O=C(CNc1nc2ccccc2c(=O)[nH]1)NC1CCCCC1` [Compound 17, N-Cyclohexyl-2-((4-oxo-3,4-dihydroquinazolin-2-yl)amino)acetamide], the MIC in series [1] and in series [2] was 50 µM (≈ 15 µg/mL) throughout. In series [3], the “Microsomal Cli, mouse” value is recorded as 2.1 mL/min/g. This compound also showed a solubility (kinetic) in series [4] of 250 µM (≈ 75.1 µg/mL).
`Cc1csc2nc(SCC(=O)NC3CCCCC3)[nH]c(=O)c12` [Compound 3]: the MIC is 43 µM (≈ 14.5 µg/mL) in series [1] and > 50 µM in series [2]. Besides, the PFI in series [5] is on record as 4.7. For the same compound, in series [6], the concentration for half-maximal inhibition (IC50) is 210 ± 25 nM.
For `Nc1nc(SCC(=O)NC2CCCCC2)nc2ccccc12` [Compound 22, 2-((4-Aminoquinazolin-2-yl)thio)-N-cyclohexylacetamide], the MIC in series [1] and in series [2] was 50 µM (≈ 15.8 µg/mL) throughout.
Turning to `O=C(CSc1nc2ccccc2c(=O)[nH]1)NC1CCCC(F)(F)C1` (stereo not shown) [Compound 9, N-(3,3-Difluorocyclohexyl)-2-((4-oxo-3,4-dihydroquinazolin-2-yl)thio)acetamide], the MIC in series [1] and in series [2] was 4.7 µM (≈ 1.66 µg/mL) each time. In addition, the “Microsomal Cli, mouse” value in series [3] came out at 2.9 mL/min/g. In series [4], this compound displayed a solubility (kinetic) of 187 µM (≈ 66.1 µg/mL).
On to `O=C(COc1nc2ccccc2c(=O)[nH]1)NC1CCCCC1` [Compound 18, N-Cyclohexyl-2-((4-oxo-3,4-dihydroquinazolin-2-yl)oxy)acetamide], for which the MIC in series [1] was found to be 25 µM (≈ 7.53 µg/mL); in series [2], 50 µM (≈ 15.1 µg/mL).
As to `O=C(CSc1nc2c(c(=O)[nH]1)CCCC2)NC1CCCCC1` [Compound 23, N-Cyclohexyl-2-((4-oxo-3,4,5,6,7,8-hexahydroquinazolin-2-yl)thio)acetamide], the MIC was determined as 1.2 µM (≈ 0.386 µg/mL) in series [1] and 1.6 µM (≈ 0.514 µg/mL) in series [2]. Further, in series [3], the “Microsomal Cli, mouse” value stood at 6.6 mL/min/g. This compound had a solubility (kinetic) in series [4] of 250 µM (≈ 80.4 µg/mL).
The like results for `O=C(CSc1nc2ccccc2c(=O)[nH]1)NC1CCC1` [Compound 6, N-Cyclobutyl-2-((4-oxo-3,4-dihydroquinazolin-2-yl)thio)acetamide] were, in that order, 1.6 µM (≈ 0.463 µg/mL), 1.6 µM (≈ 0.463 µg/mL), 1.8 mL/min/g and 219 µM (≈ 63.4 µg/mL).
For the compound `CC(Sc1nc2ccccc2c(=O)[nH]1)C(=O)NC1CCCCC1` (stereo not shown) [Compound 15, N-Cyclohexyl-2-((4-oxo-3,4-dihydroquinazolin-2-yl)thio)propanamide], the MIC in series [1] and in series [2] was 50 µM (≈ 16.6 µg/mL) throughout. Also, in series [3], the “Microsomal Cli, mouse” value worked out at 7.5 mL/min/g. The Kinetic solubility in series [4] is 250 µM.
As for `O=C(CSc1nc2cnccc2c(=O)[nH]1)NC1CCC(F)(F)CC1` [Compound 27, N-(4,4-Difluorocyclohexyl)-2-((4-oxo-3,4-dihydropyrido[3,4-d]pyrimidin-2-yl)thio)acetamide], the MIC was 9.4 µM (≈ 3.33 µg/mL) in series [1] and 2.5 µM (≈ 0.886 µg/mL) in series [2]. In series [3], the “Microsomal Cli, mouse” value was determined as 1.6 mL/min/g. This compound registered a solubility (kinetic) in series [4] of 250 µM (≈ 88.6 µg/mL).
The like results for `O=C(CSc1nc2c(c(=O)[nH]1)CCC2)NC1CCCCC1` [Compound 24, N-Cyclohexyl-2-((4-oxo-4,5,6,7-tetrahydro-3H-cyclopenta[d]pyrimidin-2-yl)thio)acetamide] were, in that order, 1.6 µM (≈ 0.492 µg/mL), 1.2 µM (≈ 0.369 µg/mL), 1.2 mL/min/g and 250 µM (≈ 76.9 µg/mL).

Broadly, the solubility (kinetic) is solubility judged after dilution from a stock solution rather than from solid. As usually defined, the IC50 is the concentration needed to halve the response being measured.

Values taken from article PMC5996347, “2-Mercapto-Quinazolinones as Inhibitors of Type II NADH Dehydrogenase and Mycobacterium tuberculosis: Structure–Activity Relationships, Mechanism of Action and Absorption, Distribution, Metabolism, and Excretion Characterization” (ACS Infectious Diseases, 2018).
